Measured values as given in US4226879A, “Antibiotic composition” (Kyowa Hakko Kogyo Kabushiki Kaisha, priority 1976, dated 1980).
Values after ≈ are worked out from the molar mass of the structure shown.

Tests used:
Eimeria acervulina = experiment: anticoccidial activity; format: in vivo
Eimeria tenella K-2 = experiment: anticoccidial test in chicks (Example 4); conditions: for Caecal lession (numbers of chicks), +: grade + (light); for Caecal lession (numbers of chicks), + / Caecal lession (numbers of chicks), ++ / Caecal lession (numbers of chicks), +++ / Caecal lession (numbers of chicks), -: groups of 10 chicks; for Caecal lession (numbers of chicks), ++: grade ++ (middle); for Caecal lession (numbers of chicks), +++: grade +++ (heavy); for Caecal lession (numbers of chicks), -: grade - (not infected)
Eimeria necatrix = experiment: anticoccidial activity; format: in vivo
[1] = test system: Mycobacterium smegmatis ATCC 607; experiment: MIC, agar dilution method; format: cell-based; conditions: Mycolicibacterium smegmatis, ATCC607; pH 7.0, 37° C., 18 hours
Botrytis cinerea = experiment: MIC, agar dilution method; format: cell-based; conditions: pH 6.8, 27° C. 72 hours
Salmonella typhimurium = experiment: MIC, agar dilution method; format: cell-based; conditions: Salmonella enterica, pH 7.0, 37° C., 18 hours
[2] = test system: Staphylococcus aureus FDA 209P; experiment: MIC, agar dilution method; format: cell-based; conditions: FDA209P, pH 7.0, 37° C., 18 hours
[3] = test system: Aerobacter aerogenes IAM 1183; experiment: MIC, agar dilution method; format: cell-based; conditions: Klebsiella aerogenes, IAM1183; pH 7.0, 37° C., 18 hours
Fusarium oxysporum = experiment: MIC, agar dilution method; format: cell-based; conditions: pH 6.8, 27° C. 72 hours
fungi = experiment: antifungal activity, agar dilution method; format: cell-based; conditions: at a concentration below 100 mcg/ml
Source text: Table 1 indicates the antibacterial and antifungal activity of AM-1042 as minimum inhibitory concentration (mcg/ml) determined by the agar dilution method.
**Potato extract containing glucose 1.0% and agar 1.2% (pH 6.8),

B. subtilis ATCC 6633 = experiment: MIC, agar dilution method; format: cell-based; conditions: Bacillus subtilis, ATCC6633; pH 7.0, 37° C., 18 hours
Aspergillus niger = experiment: MIC, agar dilution method; format: cell-based; conditions: pH 6.8, 27° C. 72 hours
Nocardia asteroides = experiment: MIC, agar dilution method; format: cell-based
Micrococcus flavus 16 = experiment: MIC, agar dilution method; format: cell-based; conditions: pH 7.0, 37° C., 18 hours
Staphylococcus aureus = experiment: antibacterial activity; format: cell-based
[4] = test system: Proteus vulgaris IFO 3163; experiment: MIC, agar dilution method; format: cell-based; conditions: IFO3163, pH 7.0, 37° C., 18 hours
Xanthomonas oryzae = experiment: microbe, parasite or virus in culture; format: cell-based; conditions: 72 h, pH 6.8
[5] = test system: Trichophyton mentagrophytes; experiment: MIC, agar dilution method; format: cell-based; conditions: pH 6.8, 27° C. 72 hours

For `O=C(/C=C/C=C/C=C/C1CCCCC1)NC1=CC(O)(/C=C/C=C/C=C/C(=O)NC2=C(O)CCC2=O)C2OC2C1=O` (stereo not drawn) [AM-1042], the activity upon coccidiosis (Eimeria acervulina) was “significantly active”, the Survival ratio (Eimeria tenella K-2; 0.00375 % in diet) was 90% and the Survival ratio (Eimeria tenella K-2; 0.005 % in diet) was 90%. The Survival ratio (Eimeria tenella K-2; 0.0075 % in diet) was 100%, the Survival ratio (Eimeria tenella K-2; 0.01 % in diet) was 100% and the Survival ratio (Eimeria tenella K-2; 0.015 % in diet) was 100%. For the same compound, the Survival ratio (Eimeria tenella K-2; 0.02 % in diet) was 100%, the Survival ratio (Eimeria tenella K-2; 0.03 % in diet) was 100% and the “Caecal lession (numbers of chicks), +” value (Eimeria tenella K-2; 0.00375 % in diet) was 1 numbers of chicks. For the same compound, the “Caecal lession (numbers of chicks), +” value (Eimeria tenella K-2; 0.005 % in diet) was 3 numbers of chicks, the “Caecal lession (numbers of chicks), +” value (Eimeria tenella K-2; 0.0075 % in diet) was 5 numbers of chicks and the “Caecal lession (numbers of chicks), +” value (Eimeria tenella K-2; 0.01 % in diet) was 2 numbers of chicks. For the same compound, the “Caecal lession (numbers of chicks), ++” value (Eimeria tenella K-2; 0.00375 % in diet) was 4 numbers of chicks, the “Caecal lession (numbers of chicks), ++” value (Eimeria tenella K-2; 0.005 % in diet) was 4 numbers of chicks and the “Caecal lession (numbers of chicks), ++” value (Eimeria tenella K-2; 0.0075 % in diet) was 2 numbers of chicks. The “Caecal lession (numbers of chicks), +++” value (Eimeria tenella K-2; 0.00375 % in diet) was 5 numbers of chicks, the “Caecal lession (numbers of chicks), +++” value (Eimeria tenella K-2; 0.005 % in diet) was 3 numbers of chicks and the “Caecal lession (numbers of chicks), -” value (Eimeria tenella K-2; 0.0075 % in diet) was 3 numbers of chicks. The “Caecal lession (numbers of chicks), -” value (Eimeria tenella K-2; 0.01 % in diet) was 8 numbers of chicks, the “Caecal lession (numbers of chicks), -” value (Eimeria tenella K-2; 0.015 % in diet) was 10 numbers of chicks and the “Caecal lession (numbers of chicks), -” value (Eimeria tenella K-2; 0.02 % in diet) was 10 numbers of chicks. The “Caecal lession (numbers of chicks), -” value (Eimeria tenella K-2; 0.03 % in diet) was 10 numbers of chicks, the activity upon coccidiosis (Eimeria necatrix) was “significantly active” and the MIC [1] was over 100 µg/mL. The MIC (Botrytis cinerea) was over 100 µg/mL, the MIC (Salmonella typhimurium) was over 100 µg/mL and the MIC [2] was 3.1 µg/mL (≈ 5.67 µM). The MIC [3] was 100 µg/mL (≈ 183 µM), the MIC (Fusarium oxysporum) was over 100 µg/mL and the activity on fungi (fungi) was “no significant activity”. For the same compound, the MIC (B. subtilis ATCC 6633) was 6.2 µg/mL (≈ 11.3 µM), the MIC (Aspergillus niger) was over 100 µg/mL and the “activity upon Nocarida asteroides” value (Nocardia asteroides) was “active”. For the same compound, the MIC (Nocardia asteroides; Nocardia asteroides, pH 7.0, 37° C., 18 hours) was 1.56 µg/mL (≈ 2.85 µM), the MIC (Micrococcus flavus 16) was 1.5 µg/mL (≈ 2.74 µM) and the “activity upon Staphylococcus aureus” value (Staphylococcus aureus) was “active”. It also gave an MIC [4] of over 100 µg/mL, an MIC (Xanthomonas oryzae) of over 100 µg/mL and an MIC [5] of 25 µg/mL (≈ 45.7 µM).
